From US10189796B2, “[4-(1,3,3-trimethyl-2-oxo-3,4-dihydro-1H-quinoxalin-7-yl)phenoxy]ethyloxy compound or salt thereof” (SANTEN PHARMACEUTICAL CO., LTD., priority 2015, dated 2019)

Columns and labels:
[1] = tested on: TNFα production in rat whole blood; assay: TNFα production inhibitory action evaluation test (LPS stimulation ex vivo, ELISA); format: cell-based; conditions: 20 hours, 200 μM test compound solution 10 μL/well, DEX treated group = 100, read-out: TNFα production inhibitory ratio (% DEX)
Description: In order to evaluate an action of the present compound as a GR agonist, a TNFα production inhibitory action in rat whole blood after LPS stimulation ex vivo was investigated. For the measurement of the TNFα production amount, the ELISA method (manufactured by R&D Systems, Cat No. RTA00) was used, and a procedure was carried out according to the protocol attached thereto. Hereinafter, the specific method will be described.
LPS solution: LPS was dissolved in PBS(−) and diluted with RPMI 1640 to prepare an LPS solution with a concentration of 2 μg/mL.
After the test compound was dissolved in dimethylsulfoxide, the solution was diluted with PBS(−) to prepare 200 μM of a test compound solution. In addition, DEX was similarly dissolved to prepare 200 μM of a DEX solution, and a TNFα production inhibitory ratio of DEX was measured, and used for calculation of Efficacy (% DEX).
• 1) Blood was collected from 3 to 5 rats using an injection syringe treated with heparin from the abdominal aorta under isoflurane anesthesia. The rats confirmed death after lething the whole blood. • 2) The blood of 3 to 5 rats pooled in a 96-well round bottom culture plate was seeded at each 180 μL/well. • 3) It was cultured (37° C., 5% CO2, 95% air) for about 1 hour. • 4) The test compound solution was added each 10 μL/well, and cultured for 1 hour. • 5) LPS solution was added each 10 μL/well. • 6) The sample in which 2% dimethylsulfoxide-containing PBS(−) was added with each 10 μL/well in place of each test compound solution, and RPMI 1640 was added with each 10 μL/well in place of the LPS solution was made a negative control. • 7) The sample in which 2% dimethylsulfoxide-containing PBS(−) was added with each 10 μL/well in place of each test compound solution was made a positive control. • 8) After completion of 20 hours cultivation, the supernatant was recovered and the amount of TNFα released in the supernatant was measured by using an ELISA Kit. • 9) The TNFα production inhibitory ratio was calculated according to the following calculation formula. (Calculation of TNFα Production Inhibitory Ratio)
TNFα production inhibitory ratio (%) was calculated according to the following formula. TNFα production inhibitory ratio (%)=100×{1−(TNFα production amount of each test compound solution−average value of TNFα production amount of negative control group)/(average value of TNFα production amount of positive control group−average value of TNFα production amount of negative control group)}(%)
Further, a TNFα production inhibitory ratio (Efficacy (% DEX)) when the DEX treated group was made 100 was calculated. Efficacy (% DEX)=100×{(average value of TNFα production inhibitory ratio of each test compound solution)/(average value of TNFα production inhibitory ratio of DEX treated group)}(%)

[2] = tested on: IL-2 production in normal human CD4+T cell; assay: IL-2 production inhibitory action evaluation test (anti-CD3/CD28 antibody stimulation, ELISA); format: cell-based; conditions: anti-CD3/CD28, 24 hours, read-out: IL-2 production inhibitory ratio (% of 1 μM)
Description: In order to evaluate an action of the present compound as a GR agonist, IL-2 and IL-4 production inhibitory actions in a normal human CD4^+T cell after stimulation by an anti-CD3/CD28 antibody were investigated. For the measurement of the IL-2 and IL-4 production amounts, the ELISA method (manufactured by R&D Systems, Cat No. D2050, HS400) was used, and a procedure was carried out according to the protocol attached thereto. Hereinafter, the specific method will be described.
Dynabeads (Registered Trademark) Human T-Activator CD3/CD28 (4×10^7 beads/mL) (Dynabeads) was used, and prepared according to the protocol attached thereto.
After the test compound was dissolved in dimethylsulfoxide, the solution was diluted with an RPMI medium to prepare 400 μM of a test compound solution. The solution was diluted with a 4% dimethylsulfoxide-containing RPMI medium to prepare 40 μM of a test compound solution.
Used cells: normal peripheral blood human CD4^+T cell (human CD4^+T cell) (Lonza)
• 1) Frozen human CD4^+T cells were thawed in a warm water bath at 37° C., and added to an RPMI medium (RPMI 1640 containing 10% FBS, 100 U/mL of Penicillin, and […] of Streptomycin). • 2) The above suspension was recovered and centrifuged at 900 rpm for 10 minutes to give a cell sediment. • 3) The cell sediment was suspended in an RPMI medium and the operation of 2) was carried out. • 4) The cell sediment was adjusted to 4×10^5 cells/mL with an RPMI medium. • 5) The above suspension was cultured in a CO2 incubator (temperature: 37° C., CO2 concentration: 5%) for 1 hour or longer. (Test Method and Measurement Method) • 1) The cultured human CD4^+T cells were recovered and the cells were seeded in 96-well flat bottom culture plates at each 8.0×10^4 cells/0.2 mL/well. • 2) The test compound solution was added with each 5 μL/well. • 3) The prepared Dynabeads were added with each 2 μL/well. • 4) The sample in which 4% dimethylsulfoxide-containing RPMI medium was added with each 5 μL/well in place of each test compound solution, and the RPMI medium was added with each 2 μL/well in place of the Dynabeads was made a negative control. • 5) The sample in which 4% dimethylsulfoxide-containing RPMI medium was added with each 5 μL/well in place of each test compound solution was made a positive control. • 6) After completion of 24 hours cultivation, the supernatant was recovered and the amounts of IL-2 and IL-4 released in the supernatant was measured by using an ELISA Kit. • 7) The IL-2 and IL-4 production inhibitory ratios were calculated according to the following calculation formula. (Calculation of IL-2 and IL-4 Production Inhibitory Ratios)
The IL-2 and IL-4 production inhibitory ratios (%) were calculated by the following formula, respectively. IL-2 or IL-4 production inhibitory ratio (%)=100×{1−(IL-2 or IL-4 production amounts of each test compound solution−average value of IL-2 or IL-4 production amount of negative control group)/(average value of IL-2 or IL-4 production amount of positive control group−average value of IL-2 or IL-4 production amount of negative control group)}(%) (Test Result and Consideration)

Compound: COc1cc(OC[C@H](C)O)ccc1-c1ccc2c(c1COc1cc(F)ccc1C)N(C)C(=O)C(C)(C)N2 [Compound 1-1, (S)-8-(5-fluoro-2-methylphenoxymethyl)-7-[4-(2-hydroxypropyl)oxy-2-methoxy-phenyl]-1,3,3-trimethyl-3,4-dihydro-1H-quinoxalin-2-one]
- Emax [1]: 81%
- inhibition at 1 µM [2]: 73%

Compound: COc1ccc(O)cc1-c1ccc2c(c1COc1cc(F)ccc1C)N(C)C(=O)C(C)(C)N2 [Control compound C, 8-(5-fluoro-2-methylphenoxymethyl)-7-(5-hydroxy-2-methoxyphenyl)-1,3,3-trimethyl-3,4-dihydro-1H-quinoxalin-2-one]
- inhibition at 1 µM [2]: 26%

Compound: COCOc1ccc(-c2ccc3c(c2COc2cc(F)ccc2C)N(C)C(=O)C(C)(C)N3)c(OC)c1 [Control compound F, 8-(5-fluoro-2-methylphenoxymethyl)-7-(2-methoxy-4-methoxymethoxyphenyl)-1,3,3-trimethyl-3,4-dihydro-1H-quinoxalin-2-one, reference compound]
- Emax [1]: 69%
- inhibition at 1 µM [2]: < 0%

Compound: CCCC(=O)Oc1ccc(-c2ccc3c(c2COc2cc(F)ccc2C)N(C)C(=O)C(C)(C)N3)c(OC)c1 [Control compound D, 7-(4-butyryloxy-2-methoxyphenyl)-8-(5-fluoro-2-methylphenoxymethyl)-1,3,3-trimethyl-3,4-dihydro-1H-quinoxalin-2-one, reference compound]
- inhibition at 1 µM [2]: < 0%

Compound: COc1ccc(-c2ccc3c(c2COc2cc(F)ccc2C)N(C)C(=O)C(C)(C)N3)c(OC)c1 [Control compound E, 7-(2,4-dimethoxyphenyl)-8-(5-fluoro-2-methyl-phenoxymethyl)-1,3,3-trimethyl-3,4-dihydro-1H-quinoxalin-2-one, reference compound]
- Emax [1]: 0%
- inhibition at 1 µM [2]: < 0%

Compound: COc1cc(OC[C@@H](O)CC#N)ccc1-c1ccc2c(c1COc1cc(F)ccc1C)N(C)C(=O)C(C)(C)N2 [Compound 5-2, (S)-7-[4-(3-cyano-2-hydroxypropyl)oxy-2-methoxyphenyl]-8-(5-fluoro-2-methyl-phenoxymethyl)-1,3,3-trimethyl-3,4-dihydro-1H-quinoxalin-2-one]
- Emax [1]: > 99%

Compound: COc1cc(OC[C@@H](O)CCO)ccc1-c1ccc2c(c1COc1cc(F)ccc1C)N(C)C(=O)C(C)(C)N2 [Compound 2-1, (S)-7-[4-(2,4-dihydroxybutyl)oxy-2-methoxyphenyl]-8-(5-fluoro-2-methyl-phenoxymethyl)-1,3,3-trimethyl-3,4-dihydro-1H-quinoxalin-2-one]
- Emax [1]: 97%
- inhibition at 1 µM [2]: 79%

Compound: COc1cc(OC[C@H](C)OC(=O)CN(C)C)ccc1-c1ccc2c(c1COc1cc(F)ccc1C)N(C)C(=O)C(C)(C)N2 [Compound 11-1, (S)-7-[4-[2-(N,N-dimethylaminoacetoxy)propyl]oxy-2-methoxyphenyl]-8-(5-fluoro-2-methylphenoxymethyl)-1,3,3-trimethyl-3,4-dihydro-1H-quinoxalin-2-one]
- inhibition at 1 µM [2]: 72%

Compound: COc1ccc(CO)cc1-c1ccc2c(c1COc1cc(F)ccc1C)N(C)C(=O)C(C)(C)N2 [Control compound B, 8-(5-fluoro-2-methylphenoxymethyl)-7-(5-hydroxymethyl-2-methoxyphenyl)-1,3,3-trimethyl-3,4-dihydro-1H-quinoxalin-2-one, reference compound]
- Emax [1]: 77%
- inhibition at 1 µM [2]: 35%
